Here are results for 26 compounds from patent US8980829B2, “Aryl glycoside compound, preparation method and use thereof” (Shanghai Yingli Science and Technology Co., Ltd, priority 2011, dated 2015).

One experiment addresses human SGLT1 (Homo sapiens (Human), UniProt P13866). Kind of experiment: Uptake assay of [14C]-AMG in Flp-In CHO cells stably expressing human SGLT1.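 Further: uptake run in sodium-containing KRH buffer with compounds added in DMSO (1% final), cell radioactivity read by scintillation counting after lysis.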 The conditions noted are these: [14C]-AMG uptake, Flp-In CHO cells expressing human SGLT1, 1 hour at 37° C., n = 1-4. The class given is cell-based.
For a further experiment, the target named is human SGLT2 (Homo sapiens (Human), UniProt P31639). Kind of experiment: Uptake assay of [14C]-AMG in Flp-In CHO cells stably expressing human SGLT2.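 On all read-outs here: uptake in Na+ containing KRH buffer with compounds added in 1% DMSO, radioactivity of lysed cells read by scintillation counting, SGLT1 tested the same way in matching Flp-In CHO cells.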 The experiment is classed as cell-based. As to conditions: for IC50: [14C]-AMG uptake, Flp-In CHO cells expressing human SGLT2, 1 hour at 37° C., n = 1-4; for Selectivity (SGLT1/SGLT2): ratio SGLT1 IC50 / SGLT2 IC50.
human SGLT2, sequence (P31639 whole entry): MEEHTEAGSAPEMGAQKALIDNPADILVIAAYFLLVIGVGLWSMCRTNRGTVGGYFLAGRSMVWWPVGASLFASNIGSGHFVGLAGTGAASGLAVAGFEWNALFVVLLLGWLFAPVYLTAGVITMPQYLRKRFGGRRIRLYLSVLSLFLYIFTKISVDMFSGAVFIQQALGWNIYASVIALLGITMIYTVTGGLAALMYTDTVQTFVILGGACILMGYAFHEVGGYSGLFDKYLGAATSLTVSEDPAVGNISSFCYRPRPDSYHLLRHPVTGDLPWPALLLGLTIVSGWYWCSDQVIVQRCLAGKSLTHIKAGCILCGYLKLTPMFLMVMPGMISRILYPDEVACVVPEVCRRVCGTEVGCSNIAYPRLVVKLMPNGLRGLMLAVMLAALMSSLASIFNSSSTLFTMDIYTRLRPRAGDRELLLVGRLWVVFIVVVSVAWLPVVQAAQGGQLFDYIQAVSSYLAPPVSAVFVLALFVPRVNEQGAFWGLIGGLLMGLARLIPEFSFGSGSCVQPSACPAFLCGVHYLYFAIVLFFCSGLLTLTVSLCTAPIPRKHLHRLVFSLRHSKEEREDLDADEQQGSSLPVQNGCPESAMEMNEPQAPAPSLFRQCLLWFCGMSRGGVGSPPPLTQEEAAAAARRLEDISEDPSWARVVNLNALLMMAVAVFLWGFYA

For a further experiment, the system named is C57 mice. Description: Urinary glucose excretion test. The experiment is classed as in vivo. The conditions noted are these: adult C57 mice, 10 mg/kg, 24-hours urine collection, average of 6 mice. On the procedure: Urinary Glucose Excretion Test
Adult C57 mice administered the test compound (10 mg/kg) were placed in metabolism cages for 24-hours urine collection, and measure the total volume of urine. When the urine samples had been collected, they were immediately frozen in a −20° C. refrigerator, followed by detecting the glucose concentration in urine. Finally, the total glucose in animal urine was calculated according to the total urine volume. It was then converted into urinary glucose excretion (mg) per 200 g of body weight within 24 hours according to the weight of mice.

human SGLT1, sequence (P13866 whole entry): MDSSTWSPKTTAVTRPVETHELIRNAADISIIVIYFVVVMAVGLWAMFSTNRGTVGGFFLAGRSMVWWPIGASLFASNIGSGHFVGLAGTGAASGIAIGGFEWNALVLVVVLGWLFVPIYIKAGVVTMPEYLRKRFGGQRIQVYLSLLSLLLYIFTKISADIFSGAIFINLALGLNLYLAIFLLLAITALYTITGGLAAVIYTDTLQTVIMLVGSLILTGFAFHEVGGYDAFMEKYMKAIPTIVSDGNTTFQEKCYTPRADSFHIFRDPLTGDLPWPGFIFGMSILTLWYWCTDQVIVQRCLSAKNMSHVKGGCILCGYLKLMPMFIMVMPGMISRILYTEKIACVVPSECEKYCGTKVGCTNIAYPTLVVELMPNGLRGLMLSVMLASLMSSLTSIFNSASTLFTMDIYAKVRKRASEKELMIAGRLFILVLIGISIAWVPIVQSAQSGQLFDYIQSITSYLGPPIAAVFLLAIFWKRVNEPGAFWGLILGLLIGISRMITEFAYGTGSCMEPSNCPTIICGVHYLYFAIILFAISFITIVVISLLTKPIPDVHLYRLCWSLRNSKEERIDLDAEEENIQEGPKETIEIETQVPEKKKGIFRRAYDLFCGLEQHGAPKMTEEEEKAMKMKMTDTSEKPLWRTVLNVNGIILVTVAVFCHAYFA

Turning to `OC[C@H]1O[C@@H](c2ccc(Cl)c(Cc3ccc(OCC4CCO4)cc3)c2)[C@H](O)[C@@H](O)[C@@H]1O` (single isomer, unassigned) [Compound 2], inhibition against human SGLT1 was half-maximal at 1640 nM (IC50). Further, on human SGLT2, the IC50 (commonly the concentration that gives 50% inhibition) is 8.7 nM and the “Selectivity (SGLT1/SGLT2)” value was determined as 188.
The matching figures for `OC[C@H]1O[C@@H](c2ccc(Cl)c(Cc3ccc(OCC4CCO4)cc3)c2)[C@H](O)[C@@H](O)[C@@H]1O` (single isomer, unassigned) [Compound 3]: 2290 nM, 11.4 nM and 201.
On the same counts, the results for `OC[C@H]1O[C@@H](c2ccc(Cl)c(Cc3ccc(OCC4CCO4)cc3)c2)[C@H](O)[C@@H](O)[C@@H]1O` (single isomer, unassigned) [Compound 4] are 1450 nM, 4.9 nM and 295.
Consider `OC[C@H]1O[C@@H](c2ccc(Cl)c(Cc3ccc(OCC4COC4)cc3)c2)[C@H](O)[C@@H](O)[C@@H]1O` [Compound 1], for which the values for the IC50 against human SGLT1 and against human SGLT2 were 2640 nM and 5.6 nM, respectively. In addition, in the experiment with C57 mice, the “Urine Glucose Excretion (mg/200 g BW/24 h)” value (“Urine Glucose Excretion” below) is recorded as 1333 mg/200 g BW/24 h. The “Selectivity (SGLT1/SGLT2)” value at human SGLT2 is recorded as 471.
The matching figures for `CC1(COc2ccc(Cc3cc([C@@H]4O[C@H](CO)[C@@H](O)[C@H](O)[C@H]4O)ccc3Cl)cc2)COC1` [Compound 5]: 792 nM, 8.3 nM, 1050 mg/200 g BW/24 h and 95.
On the same counts, the results for `OC[C@H]1O[C@@H](c2ccc(Cl)c(Cc3ccc(CC4COC4)cc3)c2)[C@H](O)[C@@H](O)[C@@H]1O` [Compound 6] are 3000 nM, 9.6 nM, 735 mg/200 g BW/24 h and 312.
As to `OC[C@H]1O[C@@H](c2ccc(Cl)c(Cc3ccc(CCC4COC4)cc3)c2)[C@H](O)[C@@H](O)[C@@H]1O` [Compound 7], the values for the IC50 against human SGLT1 and at human SGLT2 were 1060 nM and 8.5 nM, respectively. The “Selectivity (SGLT1/SGLT2)” value on human SGLT2 was found to be 124.
Turning to `OC[C@H]1O[C@@H](c2ccc(Cl)c(Cc3ccc(OCCC4COC4)cc3)c2)[C@H](O)[C@@H](O)[C@@H]1O` [Compound 8], at human SGLT1, the IC50 came out at 930 nM. At human SGLT2, the IC50 is 1.7 nM and the “Selectivity (SGLT1/SGLT2)” value worked out at 547.
For `OC[C@H]1O[C@@H](c2ccc(Cl)c(Cc3ccc(OCCC4(F)COC4)cc3)c2)[C@H](O)[C@@H](O)[C@@H]1O` [Compound 9], the concentration for half-maximal inhibition (IC50) was 1190 nM against human SGLT1 and 7.5 nM on human SGLT2. Also, in the experiment on C57 mice, the “Urine Glucose Excretion” value amounted to 1079 mg/200 g BW/24 h. For the same compound, at human SGLT2, the “Selectivity (SGLT1/SGLT2)” value stood at 159.
`OC[C@H]1O[C@@H](c2ccc(Cl)c(Cc3ccc(OCCC4CSC4)cc3)c2)[C@H](O)[C@@H](O)[C@@H]1O` [Compound 10]: the half-inhibitory concentration (IC50) is 1300 nM against human SGLT1 and 7.4 nM at human SGLT2. In the experiment with C57 mice, the “Urine Glucose Excretion” value is given as 740 mg/200 g BW/24 h. The “Selectivity (SGLT1/SGLT2)” value at human SGLT2 worked out at 176.
On human SGLT1, `[O-][S+]1CC(CCOc2ccc(Cc3cc([C@@H]4O[C@H](CO)[C@@H](O)[C@H](O)[C@H]4O)ccc3Cl)cc2)C1` (some centres unmarked) [Compound 11] gave an IC50 of 1020 nM. Also, at human SGLT2, half-maximal inhibition (IC50) was put at 6.8 nM and the “Selectivity (SGLT1/SGLT2)” value was found to be 150.
In turn, `OC[C@H]1O[C@@H](c2ccc(Cl)c(Cc3ccc(OCC4(F)COC4)cc3)c2)[C@H](O)[C@@H](O)[C@@H]1O` [Compound 12] returned an IC50 against human SGLT1 of 2080 nM. Also, in the experiment with C57 mice, the “Urine Glucose Excretion” value amounted to 1323 mg/200 g BW/24 h. Also, at human SGLT2, the 50% inhibitory concentration (IC50) came to 6.5 nM and the “Selectivity (SGLT1/SGLT2)” value turned out to be 320.
Compound `CC(C)(C)OC(=O)N1CC(COc2ccc(Cc3cc([C@@H]4O[C@H](CO)[C@@H](O)[C@H](O)[C@H]4O)ccc3Cl)cc2)C1` [Compound 13] yielded an IC50 against human SGLT1 of 2760 nM. Also, at human SGLT2, the IC50 came out at 28.7 nM and the “Selectivity (SGLT1/SGLT2)” value was determined as 96.
Take `OC[C@H]1O[C@@H](c2ccc(Cl)c(Cc3ccc(OCC4CNC4)cc3)c2)[C@H](O)[C@@H](O)[C@@H]1O` [Compound 14]: the results for the concentration for half-maximal inhibition (IC50) on human SGLT1 and at human SGLT2 were 785 nM and 8.4 nM, respectively. The “Selectivity (SGLT1/SGLT2)” value on human SGLT2 is on record as 93.
`CN1CC(COc2ccc(Cc3cc([C@@H]4O[C@H](CO)[C@@H](O)[C@H](O)[C@H]4O)ccc3Cl)cc2)C1` [Compound 15] displayed an IC50 at human SGLT1 of 1460 nM. Also, on human SGLT2, the concentration for half-maximal inhibition (IC50) stood at 23.6 nM and the “Selectivity (SGLT1/SGLT2)” value is given as 62.
`OC[C@H]1O[C@@H](c2ccc(Cl)c(Cc3ccc(CC4(F)COC4)cc3)c2)[C@H](O)[C@@H](O)[C@@H]1O` [Compound 16]: the 50% inhibitory concentration (IC50) at human SGLT1 was determined as 2480 nM; on human SGLT2, 8.1 nM. Also, the “Urine Glucose Excretion” value in the experiment with C57 mice came to 1441 mg/200 g BW/24 h. The “Selectivity (SGLT1/SGLT2)” value at human SGLT2 was 306.
On the same counts, the results for `CC(=O)N1CC(COc2ccc(Cc3cc([C@@H]4O[C@H](CO)[C@@H](O)[C@H](O)[C@H]4O)ccc3Cl)cc2)C1` [Compound 17] are 469 nM, 6.4 nM, 180 mg/200 g BW/24 h and 73.
Consider `OC[C@H]1O[C@@H](c2ccc(Cl)c(Cc3ccc(OCC4CN(C5COC5)C4)cc3)c2)[C@H](O)[C@@H](O)[C@@H]1O` [Compound 18], for which the IC50 at human SGLT1 was 2450 nM. On human SGLT2, the midpoint of inhibition, the IC50, lay at 22 nM and the “Selectivity (SGLT1/SGLT2)” value stood at 111.
As to `OC[C@H]1O[C@@H](c2ccc(Cl)c(Cc3ccc(OCC4CN(c5ccc(F)cc5)C4)cc3)c2)[C@H](O)[C@@H](O)[C@@H]1O` [Compound 19], the IC50 on human SGLT1 was 1990 nM. Besides, at human SGLT2, the IC50 came to 97.2 nM and the “Selectivity (SGLT1/SGLT2)” value is given as 21.
Regarding `OC[C@H]1O[C@@H](c2ccc(Cl)c(Cc3ccc(OCC4(CF)COC4)cc3)c2)[C@H](O)[C@@H](O)[C@@H]1O` [Compound 20], the half-maximal inhibitory concentration (IC50) at human SGLT1 is 2550 nM; against human SGLT2, 3.7 nM. The “Urine Glucose Excretion” value in the experiment with C57 mice was 751 mg/200 g BW/24 h. The “Selectivity (SGLT1/SGLT2)” value at human SGLT2 is on record as 690.
`OC[C@H]1O[C@@H](c2ccc(Cl)c(Cc3ccc(OCCCC4COC4)cc3)c2)[C@H](O)[C@@H](O)[C@@H]1O` [Compound 22] came in with an IC50 against human SGLT1 of 4950 nM. On human SGLT2, inhibition was half-maximal at 1.7 nM (IC50) and the “Selectivity (SGLT1/SGLT2)” value came to 2911.
`OC[C@H]1O[C@@H](c2ccc(Cl)c(Cc3ccc(OCCCC4(F)COC4)cc3)c2)[C@H](O)[C@@H](O)[C@@H]1O` [Compound 23] showed a concentration for half-maximal inhibition (IC50) against human SGLT1 of 1200 nM. In the experiment with C57 mice, the “Urine Glucose Excretion” value worked out at 1198 mg/200 g BW/24 h. Further, at human SGLT2, the IC50 came out at 1.1 nM and the “Selectivity (SGLT1/SGLT2)” value came to 1089.
In turn, `CCOc1ccc(Cc2cc([C@@H]3O[C@H](CO)[C@@H](O)[C@H](O)[C@H]3O)c(OCC3(F)COC3)cc2Cl)cc1` [Compound 24] registered an IC50 against human SGLT1 of 17100 nM. On human SGLT2, the 50% inhibitory concentration (IC50) came out at 12 nM and the “Selectivity (SGLT1/SGLT2)” value was found to be 1424.
For `CCOc1ccc(Cc2cc([C@@H]3O[C@H](CO)[C@@H](O)[C@H](O)[C@H]3O)c(OCCCC3(F)COC3)cc2Cl)cc1` [Compound 25], the IC50 on human SGLT1 is 18800 nM. On human SGLT2, the IC50 came to 12.3 nM and the “Selectivity (SGLT1/SGLT2)” value is on record as 1559.
Regarding `CCOc1ccc(Cc2cc([C@@H]3O[C@H](CO)[C@@H](O)[C@H](O)[C@H]3O)c(OCC3CNC3)cc2Cl)cc1` [Compound 26], the half-inhibitory concentration (IC50) on human SGLT1 came to 1950 nM. Moreover, at human SGLT2, half-maximal inhibition (IC50) required 69.4 nM and the “Selectivity (SGLT1/SGLT2)” value worked out at 28.
In the case of `OC[C@H]1O[C@@H](c2ccc(Cl)c(Cc3ccc(OC4CCOC4)cc3)c2)[C@H](O)[C@@H](O)[C@@H]1O` (some centres unmarked) [EMPAGLIFLOZIN, reference compound], the “Urine Glucose Excretion” value in the experiment on C57 mice amounted to 1197 mg/200 g BW/24 h.
